Measurements reported in patent US20100234459A1, “MEDICALL USE OF 3-(2,2,2,-TRIMETHYLYHDRAZINIUM) PROPIONATE HDROGEN FUMARATE AND DIHYDROGEN PHOSEPHATE” (JSC GRINDEKS, priority 2007, published 2010).

Tested on: rabbit aorta
Assay: Anti-atherosclerotic experiment: cholesterol-fed rabbits, aorta stained with Oil red O
Assay type: in vivo, Chinchilla rabbits
Conditions: 1% cholesterol diet, 15 weeks, in drinking water; dihydrogen phosphate 165 mg/kg, hydrogen fumarate 174 mg/kg; compared with control and Meldonium dihydrate (124 mg/kg) groups
Procedure: Pharmacological experiment was carried out to examine the anti-atherosclerotic effect of Meldonium dihydrogen phosphate or Meldonium hydrogen fumarate in the aorta.
The experiments with Meldonium salt such as Meldonium dihydrogen phosphate or Meldonium hydrogen fumarate, were performed in 38 Chinchilla rabbits weighing 2.5-3.0 kg. The rabbits were randomly divided into 4 groups: Control (n=11), Meldonium dihydrate group (n=9) and Meldonium dihydrogen phosphate group (n=9) and Meldonium hydrogen fumarate group (n=9).
Experimental atherosclerosis, i.e. serum hyperlipidaemia and the atherosclerotic manifestations in the aorta, was induced by administering 1% cholesterol by weight together with standard diet.
The rabbits were fed with standard diet with 1% cholesterol dissolved in the sunflower seed oil (4% from the total amount of food). The diet was enriched with cholesterol as follows: 10 kg standard food for rabbits was heated to 60° C. and was mixed with 100 g warm cholesterol dissolved in 400 ml sunflower seed oil. The rabbits received 200 g of this food per day.
The experimental groups were given Meldonium dihydrate, Meldonium dihydrogen phosphate and Meldonium hydrogen fumarate, in a dose 124 mg/kg, 165 mg/kg and 174 mg/kg. The preparations were added to drinking water.
After 15 weeks the rabbits were sacrificed. Heart, aorta and liver were collected for examination. […]

| SMILES | reduction of the area of atherosclerotic plaque in rabbit aorta |
| --- | --- |
| C[N+](C)(C)NCCC(=O)O.O=P([O-])(O)O [Meldonium dihydrogen phosphate] | > 2 fold |
| C[N+](C)(C)NCCC(=O)O.O=C([O-])C=CC(=O)O [Meldonium hydrogen fumarate] | > 2 fold |
